Laboratory results published in patent publication US20210207082A1, “SPHERICAL 3D TUMOR SPHEROID” (KOREA INSTITUTE OF SCIENCE AND TECHNOLOGY, priority 2019, published 2021).

How the values were obtained:
BMSC+MDA-MB-231 spheroid [1] = experiment: Real Time-Glo MT cell viability assay, 3D multicellular tumor spheroid; type: cell-based; conditions: Homo sapiens, 48 h; 10 μM doxorubicin for two days
FIB+MDA-MB-231 spheroid [2] = experiment: as above; type: cell-based; conditions: Homo sapiens, 48 h; 10 μM doxorubicin for two days
ASC+MDA-MB-231 spheroid [3] = experiment: Real Time-Glo Annexin V apoptosis assay, 3D spheroid; type: cell-based, human; conditions: 10 μM doxorubicin, 48 hours
Description: (§1) Apoptotic and necrotic cells in spheroids were assayed using Real Time-Glo™ Annexin V apoptosis and necrosis assays. Real Time-Glo™ Annexin V apoptosis and necrosis assays were performed in combination with a cell viability assay. […] Thereafter, 2X apoptosis and necrosis formulations of the same volume (100 μL) were added to each well according to standard protocol proposed in manufacturer's instructions.
(§2) To investigate drug sensitivity depending on the viability against doxorubicin in the spheroids, Real Time-Glo™ Annexin V apoptosis and necrosis assays were performed. If apoptosis is induced by a drug response, a cell membrane is reversed to expose phosphatidyl-serine (PS), and an apoptotic cell can be analyzed by binding PS with Annexin V detected by a luminescence signal. A necrotic cell is detected by binding DNA with PI (green) that produces a fluorescence signal when the necrotic cell invades into a cell and a cell membrane loses integrity.

BMSC+MDA-MB-231 spheroid [4] = experiment: as above; type: cell-based, human; conditions: 10 μM doxorubicin, 48 hours
Description: as §1, §2

FIB+MDA-MB-231 spheroid [5] = experiment: as above; type: cell-based, human; conditions: 10 μM doxorubicin, 48 hours
Description: as §1, §2

[6] = tested on: 3D multicellular tumor spheroids (ASC, BMSC or FIB + MDA-MB-231); experiment: Necrosis (PI) assay, three types of 3D spheroids; type: cell-based, human; conditions: 10 μM doxorubicin, 48 hours
Description: as §1, §2

[7] = tested on: three types of 3D spheroids versus 2D monolayer; experiment: 3D versus 2D comparison of cell viability; type: cell-based, human; conditions: doxorubicin
ASC+MDA-MB-231 spheroid [8] = experiment: Real Time-Glo MT cell viability assay, 3D multicellular tumor spheroid

For `COc1cccc2c1C(=O)c1c(O)c3c(c(O)c1C2=O)C[C@@](O)(C(=O)CO)C[C@@H]3O[C@H]1C[C@H](N)[C@H](O)[C@H](C)O1` [doxorubicin], the viability at 10 µM (BMSC+MDA-MB-231 spheroid [1]) was 48.3%, the viability at 10 µM (FIB+MDA-MB-231 spheroid [2]) was 43% and the “apoptosis (Annexin V) fold change” value (ASC+MDA-MB-231 spheroid [3]) was 9 fold. For the same molecule, the “apoptosis (Annexin V) fold change” value (BMSC+MDA-MB-231 spheroid [4]) was 10 fold, the “apoptosis (Annexin V) fold change” value (FIB+MDA-MB-231 spheroid [5]) was “about 13 times” and the “necrosis (PI), difference between spheroid types” value [6] was “No significant difference”. For the same molecule, the “drug sensitivity of 3D spheroids compared with 2D monolayer” value [7] was “lower drug sensitivity”, the cell viability (ASC+MDA-MB-231 spheroid [8]; 10 μM doxorubicin for two days) was 56.67% and the “viability, compared with other co-culture ratios” value (ASC+MDA-MB-231 spheroid [8]; ASC:MDA-MB-231 co-culture ratio 5:5, 10 μM doxorubicin, 48 hours) was “highest”.
